As a reminder, the pIC50 is −log10 of the IC50, conventionally taken in molar units.

pIC50: −log10 of the molar value.

One assay concerns the target T1, ErbB2 or EGFR.
T1 construct: enzymes purified from a baculovirus expression system; Reagent production was conducted essentially as described in Brignola, P. S., et al, (2002) J. Biol. Chem. 277(2): 1576-1585
Description: ErbB family substrate phosphorylation enzyme assay (HTRF), Method A or Method B. Format: biochemical. The method, then:
Compounds of the present invention were tested for EGFR, ErbB-2, and ErbB-4 protein tyrosine kinase inhibitory activity in substrate phosphorylation assays using enzymes purified from a baculovirus expression system. Reagent production was conducted essentially as described in Brignola, P. S., et al, (2002) J. Biol. Chem. 277(2): 1576-1585.
The method measures the ability of the isolated enzyme to catalyse the transfer of the gamma-phosphate from ATP onto the tyrosine residue of a biotinylated synthetic peptide referenced “Peptide C” in Brignola, P. S., et al, (2002) J. Biol. Chem. 277(2):1576-1585. The extent of tyrosine phosphorylation was measured using an anti-phosphotyrosine antibody, and quantified by homogenous time-resolved fluorescence (HTRF).
Reactions were performed in black 384-well polystyrene flat-bottom plates in a final volume of 20 ul. Assays were performed by adding 10 μl of each of the following solutions, substrate Mix and enzyme mix: The Substrate mix contained 100 mM 3-[N-morpholino]propanesulfonic acid (MOPS) (pH 7.5), 2 mM MnCl2, 20 μM ATP, 0.01% Tween-20, 0.1 mg/mL (BSA), 0.8 uM peptide substrate, and 1 mM dithiothreitol. The enzyme mix contained 100 mM MOPS (pH7.5); 0.01% Tween-20; 0.1 mg/mL BSA, and either 0.8 nM EGFR, 10 nM ErbB2, or 1 nM ErbB4
During the course of these studies, two separate methods have been used to measure the potency of compounds. In Method A, the substrate mix was added to the compound plates first, then the reaction was started by adding the enzyme mix. In Method B, the enzyme mix was added to the compound plates and the plates were incubated at 20° C. for 1 hour. The reactions were then started by adding the substrate mix.
After initiating the reaction with either method describe above, the reactions were allowed to proceed for 90 minutes at 20° C. The reactions were then terminated by the addition of 20 μl 100 mM EDTA to each well. 40 μl/well of HTRF detection mix were added to the assay plates. The final concentrations of the detection reagents were: 100 mM HEPES (pH7.5), 0.1 mg/mL BSA, 15 nM streptavidin-labeled allophycocyanin (PerkinElmer), and 1 nM europium-labeled anti-phosphotyrosine antibody (PerkinElmer). Assay plates were left unsealed and were counted in a Wallac Multilabel Counter 1420 (PerkinElmer).
Compounds under analysis were dissolved in Me2SO to 1.0 mM and serially diluted 1 to 3 with Me2SO through twelve dilutions. 1 μl of each concentration was transferred to the corresponding well of an assay plate. This creates a final compound concentration range from 0.00027 to 47.6 μM.
The data for dose responses were plotted as % Inhibition calculated with the data reduction formula 100*(1−(U1−C2)/(C1−C2)) versus concentration of compound where U is the unknown value, C1 is the average control value obtained for 4.76% DMSO, and C2 is the average control value obtained for 0.035 M EDTA. Data were fitted with a curve described by: y=((Vmax*x)/(K+x))+Y^2 where Vmax is the upper asymptote, Y2 is the Y intercept, and K is the IC50. The results for each compound were recorded as pIC50s, calculated as follows: pIC50=−Log 10(K)
On the technique in general: TR-FRET usually uses a lanthanide donor and a delayed reading to cut background.

Assay [1] concerns BT474 and HN5 tumor cell lines. Kind of assay: Methylene blue growth inhibition assay (cellular Method A). Format: cell-based, Human. Particulars: Homo sapiens, BT-474, 72 h, 3 days, read-out: Activity (Method): growth inhibition IC50 class. The method, then: Human breast (BT474) and head and neck (HN5) were cultured in low glucose DMEM (Life Technologies 12320-032) containing 10% fetal bovine serum (FBS). Human colon tumor cells (Colo205) were cultured in DMEM (Invitrogen, 10564) containing 10% FBS. The SV40 transformed human mammary epithelial cell line HB4a was transfected with either human H-ras cDNA (HB4a r4.2) or the human c-ErbB2 cDNA (HB4a c5.2). The HB4a clones were cultured in RPMI containing 10% FBS, insulin (5 g/mL), hydrocortisone (5 g/mL), supplemented with the selection agent hygromycin B (50 g/mL). All lines were grown in a humidified incubator at 37° C. in 95% air, 5% CO2. Cells were harvested using trypsin/EDTA, counted using a haemocytometer, and plated in 100 microliters of the appropriate media, at the following densities, in a 96-well tissue culture plate (Falcon 3075): BT474 10,000 cells/well, HN5 3,000 cells/well. The next day, compounds were diluted in DMEM containing […] gentamicin, at twice the final required concentration, from 10 mM stock solutions in DMSO. 100 microliters/well of these dilutions were added to the 100 microliters of media currently on the cell plates. Medium containing 0.6% DMSO was added to control wells. Compounds diluted in DMEM were added to all cell lines. The final concentration of DMSO in all wells was 0.3%. Cells were returned to the incubator (37° C., 10% CO2) for 3 days. Medium was then removed by aspiration. Cell biomass was estimated by staining cells with 90 microliters per well methylene blue (Sigma M9140, 0.5% in 1:1 ethanol:water), and incubation at rt for at least 30 minutes. Stain was removed, and the plates rinsed by immersion in deionized water and air-dried. To release stain from the cells 100 microliters of solubilization solution was added (1% N-lauroyl sarcosine, Sodium salt, Sigma L5125, in PBS), and plates were shaken gently for about 30 minutes. Optical density at 620 nm was measured on a microplate reader. Percent inhibition of cell growth was calculated relative to vehicle treated control wells. Concentration of compound that inhibits 50% of control cell growth (IC50) was interpolated using nonlinear regression (Levenberg-Marquardt) and the equation, y=Vmax*(1−(x/(K+x)))+Y2, where “K” was equal to the IC50. Method B: Celltiter Glo® Growth Inhibition Assays

Where [2] appears, read: Method A: substrate mix added first, reaction started with enzyme mix.
Setting [3] is: Method B: enzyme mix pre-incubated with compound 1 hour at 20° C., started with substrate mix.

Consider `COCCOc1ccc(Nc2nccc(-c3c(-c4cccc(NC(=O)c5c(F)cccc5F)c4)nn4ccccc34)n2)cc1Cl` [Example 125, N-[3-(3-{2-[(3-Chloro-4-{[2-(methyloxy)ethyl]oxy}-phenyl)amino]-4-pyrimidinyl}pyrazolo[1,5-a]pyridin-2-yl)phenyl]-2,6-difluorobenzamide], for which the “Activity (Method): pIC50 class against ErbB2 or EGFR” value (from here on “Activity (Method): pIC50 class”) on ErbB2 or EGFR (setting [2]) is recorded as “+++ (A) (at least one pIC50 measurement of greater than 7 against either ErbB2 or EGFR)”. Besides, in assay [1], the pIC50 is above 7.00.
As for `O=C(Nc1cccc(-c2nn3ccccc3c2-c2ccnc(Nc3cccc(F)c3)n2)c1)c1ccnc(Cl)c1` [Example 73, 2-Chloro-N-[3-(3-{2-[(3-fluorophenyl)amino]-4-pyrimidinyl}pyrazolo[1,5-a]pyridin-2-yl)phenyl]-4-pyridinecarboxamide], the “Activity (Method): pIC50 class” value on ErbB2 or EGFR (setting [3]) is reported as “++ (B) (at least one pIC50 measurement greater than 6 against either ErbB2 or EGFR but no measurement greater than pIC50 of 7)”. The pIC50 in assay [1] is below 6.00.
With `N#Cc1cccc(Nc2nccc(-c3c(-c4cccc(NC(=O)c5cc(F)ccc5F)c4)nn4ccccc34)n2)c1` [Example 48, N-[3-(3-{2-[(3-Cyanophenyl)amino]-4-pyrimidinyl}pyrazolo[1,5-a]pyridin-2-yl)phenyl]-2,5-difluorobenzamide], the “Activity (Method): pIC50 class” value at ErbB2 or EGFR (setting [2]) was “+++ (A) (at least one pIC50 measurement of greater than 7 against either ErbB2 or EGFR)”. For the same molecule, the negative-log IC50 (pIC50) in assay [1] was above 7.00.
Consider `Cc1noc(C)c1C(=O)Nc1cccc(-c2nn3ccccc3c2-c2ccnc(Nc3cccc(F)c3)n2)c1` [Example 38, N-[3-(3-{2-[(3-fluorophenyl)amino]-4-pyrimidinyl}-pyrazolo[1,5-a]pyridin-2-yl)phenyl]-3,5-dimethyl-4-isoxazolecarboxamide], for which the “Activity (Method): pIC50 class” value at ErbB2 or EGFR (setting [3]) is “+++ (B) (at least one pIC50 measurement of greater than 7 against either ErbB2 or EGFR)”. In addition, the pIC50 in assay [1] is 6.00 to 7.00.
On to `O=C(Nc1cccc(-c2nn3ccccc3c2-c2ccnc(Nc3cccc(F)c3)n2)c1)c1ccncc1` [Example 75, N-[3-(3-{2-[(3-Fluorophenyl)amino]-4-pyrimidinyl}pyrazolo[1,5-a]pyrindin-2-yl)phenyl]-4-pyridinecarboxamide], for which the “Activity (Method): pIC50 class” value on ErbB2 or EGFR (setting [3]) was “+++ (B) (at least one pIC50 measurement of greater than 7 against either ErbB2 or EGFR)”. Also, the pIC50 in assay [1] was 6.00 to 7.00.
For `Cc1ccc(F)c(C(=O)Nc2cccc(-c3nn4ccccc4c3-c3ccnc(Nc4cccc(F)c4)n3)c2)c1F` [Example 72, 2,6-Difluoro-N-[3-(3-{2-[(3-fluorophenyl)amino]-4-pyrimidinyl}pyrazolo[1,5-a]pyridin-2-yl)phenyl]-3-methylbenzamide], at ErbB2 or EGFR (setting [3]), the “Activity (Method): pIC50 class” value was “++ (B) (at least one pIC50 measurement greater than 6 against either ErbB2 or EGFR but no measurement greater than pIC50 of 7)”. For the same molecule, in assay [1], the pIC50 was 6.00 to 7.00.
On to `O=C(Nc1cccc(-c2nn3ccccc3c2-c2ccnc(Nc3ccc4c(c3)CNCC4)n2)c1)c1c(F)cccc1F` [Example 64, 2,6-Difluoro-N-(3-{3-[2-(1,2,3,4-tetrahydro-7-isoquinolinylamino)-4-pyrimidinyl]pyrazolo[1,5-a]pyridin-2-yl}phenyl)benzamide], for which the “Activity (Method): pIC50 class” value at ErbB2 or EGFR (setting [3]) is “+++ (B) (at least one pIC50 measurement of greater than 7 against either ErbB2 or EGFR)”. The pIC50 in assay [1] was above 7.00.
Consider `Cc1cc(Nc2nccc(-c3c(-c4cccc(NC(=O)c5c(F)cccc5F)c4)nn4ccccc34)n2)ccc1C#N` [Example 95], for which the “Activity (Method): pIC50 class” value at ErbB2 or EGFR (setting [3]) is given as “+++ (B) (at least one pIC50 measurement of greater than 7 against either ErbB2 or EGFR)”. In assay [1], the pIC50 is above 7.00.
Regarding `Cc1cccc(C(=O)Nc2cccc(-c3nn4ccccc4c3-c3ccnc(Nc4cccc(F)c4)n3)c2)c1Cl` [Example 70, 2-Chloro-N-[3-(3-{2-[(3-fluorophenyl)amino]-4-pyrimidinyl}pyrazolo[1,5-a]pyridin-2-yl)phenyl]-3-methylbenzamide], at ErbB2 or EGFR (setting [3]), the “Activity (Method): pIC50 class” value was “++ (B) (at least one pIC50 measurement greater than 6 against either ErbB2 or EGFR but no measurement greater than pIC50 of 7)”. Moreover, in assay [1], the pIC50 is 6.00 to 7.00.
Turning to `O=C(Nc1cccc(-c2nn3ccccc3c2-c2ccnc(Nc3ccccc3)n2)c1)c1cccs1` [Example 139], the “Activity (Method): pIC50 class” value at ErbB2 or EGFR (setting [2]) was “++ (A) (at least one pIC50 measurement greater than 6 against either ErbB2 or EGFR but no measurement greater than pIC50 of 7)”. Moreover, in assay [1], the pIC50 was 6.00 to 7.00.
Turning to `O=C(Nc1cccc(-c2nn3ccccc3c2-c2ccnc(Nc3cccc(F)c3)n2)c1)c1cccnc1` [Example 66, N-[3-(3-{2-[(3-fluorophenyl)amino]-4-pyrimidinyl}pyrazolo[1,5-a]pyridin-2-yl)phenyl]-3-pyridinecarboxamide], the “Activity (Method): pIC50 class” value at ErbB2 or EGFR (setting [3]) is recorded as “++ (B) (at least one pIC50 measurement greater than 6 against either ErbB2 or EGFR but no measurement greater than pIC50 of 7)”. Further, in assay [1], the pIC50 is 6.00 to 7.00.
For `O=C(Nc1cccc(-c2nn3ccccc3c2-c2ccnc(Nc3ccc(Cl)cc3)n2)c1)c1c(F)cccc1F` [Example 92], the “Activity (Method): pIC50 class” value on ErbB2 or EGFR (setting [2]) is “++ (A) (at least one pIC50 measurement greater than 6 against either ErbB2 or EGFR but no measurement greater than pIC50 of 7)”. In assay [1], the pIC50 was 6.00 to 7.00.
For `CN(CCCOc1ccc(N)cc1F)c1nccc(-c2c(-c3cccc(NC(=O)c4c(F)cccc4F)c3)nn3ccccc23)n1` [Example 130, N-[3-(3-{2-[{3-[(4-Amino-2-fluorophenyl)oxy]propyl}(methyl)amino]-4-pyrimidinyl}pyrazolo[1,5-a]pyridin-2-yl)phenyl]-2,6-difluorobenzamide], in that order: “++ (A) (at least one pIC50 measurement greater than 6 against either ErbB2 or EGFR but no measurement greater than pIC50 of 7)” and below 6.00.
